Measured values: patent US20260053764A1, “COMPOSITION FOR PREVENTING DETERIORATION IN COGNITIVE FUNCTION AND/OR IMPROVING COGNITIVE FUNCTION” (PHARMA FOODS INTERNATIONAL CO., LTD., priority 2020, published 2026)

System: health-associated QOL in a human
Experiment: SF-36 health-associated QOL assessment in clinical tests A and B
Assay type: in vivo
Set-up: key to General health / Vitality / Mental health: SF-36 subscale score; higher score = better health state
Conditions: for Everyday role function (mental) / Everyday role function (physical) / General health / Mental health / Physical function / Vitality: mean ± SD
Excerpt: SF-36 is known as a QOL assessment method associated with health, wherein SF-36 (MOS 36-Item Short-Form Health Survey) is a self-report type health state questionnaire that can rate eight health concepts (physical function, everyday role function (physical), body pain, general health, vitality, social function, everyday role function (mental) and mental health) as scores. A high score of each health concept (subscale) in SF-36 is interpreted as shown below. • Physical function . . . Capable of carrying out every type of activity including vigorous activity. • Everyday role function (physical) . . . There was no physical problem when carrying out work or normal activity during the past month. • Body pain . . . There was no body pain at all during the past month and usual work was not interfered by body pain at all. • General health . . . Health state is very good. • Vitality . . . Always full of energy during the past month. • Social life function . . . The usual social interactions with family, friends, neighbors and other companions were not at all interfered by any physical or psychological reason. • Everyday role function (mental) . . . There was no psychological problem when carrying out work or normal activity during the past month. • Mental health . . . The subject was in a calm, happy and peaceful mood during the past month.
Two types of placebo-controlled randomized double-blind two-group parallel comparison tests were carried out as clinical tests. […] Specifically, capsules comprising 100 mg of dextrin per capsule were used as the placebo food.
The screening examination was carried out to select 60 subjects for each test (a total of 120 subjects). MMSE (Mini Mental State Examination) is an examination for assessing the degree of progression of dementia or the like based on the score thereof with 30 as the perfect score, wherein dementia is suspected with a score of 23 or lower.
The total of 120 subjects were randomly divided into test A active group, test A placebo group, test B active group and test B placebo group with 30 subjects in each group. Each subject of the test A active group ingested two capsules of the active food, each subject of the test A placebo group ingested two capsules of the placebo food, each subject of the test B active group ingested one capsule of the active food and each subject of the test B placebo group ingested one capsule of the placebo food.
Each subject followed the schedule shown in the table below and ingested one or two of the assigned capsules together with water for 12 weeks from two weeks after the initial screening examination. All subjects had no particular instruction during the ingestion period and freely took their meals.
In addition, SF-36 was practiced as health-associated QOL assessment. Regarding SF-36, examination was carried out a total of four times, which are before starting test food ingestion, after four weeks of ingestion, after eight weeks of ingestion and after twelve weeks of ingestion.

[1] = test A 200 mg, before ingestion
[2] = test B 100 mg, before ingestion

## NCCCC(=O)O [GABA, γ-aminobutyric acid]
Test A 200 mg, 4 W
  Body pain: difference between active food and placebo food groups: −2.1
  Everyday role function (mental): difference between active food and placebo food groups: 1.9
  Everyday role function (physical): difference between active food and placebo food groups: 2.8
  General health: difference between active food and placebo food groups: 0.1
  Mental health: difference between active food and placebo food groups: 3.6
  Physical function: difference between active food and placebo food groups: 0.4
  Social life function: difference between active food and placebo food groups: 1.1
  Vitality: difference between active food and placebo food groups: 5.5
Test A 200 mg, 4 w
  Everyday role function (mental): 53.4 ± 6.0
  Everyday role function (physical): 54.3 ± 3.5
  General health: 57.2 ± 7.9
  Mental health: 56.0 ± 6.7
  Physical function: 53.8 ± 6.2
  Vitality: 56.1 ± 7.3
Test A 200 mg, 8 W
  Body pain: difference between active food and placebo food groups: −2.9
  Everyday role function (mental): difference between active food and placebo food groups: 1.1
  Everyday role function (physical): difference between active food and placebo food groups: 3.3
  General health: difference between active food and placebo food groups: 2.5
  Mental health: difference between active food and placebo food groups: 3.5
  Physical function: difference between active food and placebo food groups: −0.7
  Social life function: difference between active food and placebo food groups: 0.9
  Vitality: difference between active food and placebo food groups: 4.8
Test A 200 mg, 8 w
  Everyday role function (mental): 52.7 ± 5.7
  Everyday role function (physical): 53.8 ± 4.0
  General health: 58.4 ± 7.4
  Mental health: 56.3 ± 7.3
  Physical function: 53.8 ± 6.1
  Vitality: 55.6 ± 8.3
Test A 200 mg, 12 W
  Body pain: difference between active food and placebo food groups: −0.3
  Everyday role function (mental): difference between active food and placebo food groups: 1.5
  Everyday role function (physical): difference between active food and placebo food groups: 2.1
  General health: difference between active food and placebo food groups: 0.2
  Mental health: difference between active food and placebo food groups: 3.5
  Physical function: difference between active food and placebo food groups: −1.0
  Social life function: difference between active food and placebo food groups: −1.1
  Vitality: difference between active food and placebo food groups: 5.4
Test A 200 mg, 12 w
  Everyday role function (mental): 53.7 ± 5.4
  Everyday role function (physical): 54.2 ± 4.2
  General health: 58.4 ± 6.5
  Mental health: 57.0 ± 5.9
  Physical function: 53.6 ± 7.2
  Vitality: 57.1 ± 6.7
[1]
  Body pain: difference between active food and placebo food groups: −0.7
  Everyday role function (mental): difference between active food and placebo food groups: −0.1
  Everyday role function (physical): difference between active food and placebo food groups: 1.3
  General health: difference between active food and placebo food groups: 0.0
  Mental health: difference between active food and placebo food groups: 0.3
  Physical function: difference between active food and placebo food groups: 0.5
  Social life function: difference between active food and placebo food groups: 2.1
  Vitality: difference between active food and placebo food groups: 2.9
  Everyday role function (mental): 52.6 ± 6.3
  Everyday role function (physical): 54.2 ± 4.3
  General health: 57.4 ± 7.4
  Mental health: 54.1 ± 8.4
  Physical function: 53.0 ± 6.1
  Vitality: 54.6 ± 7.6
Test A, after eight weeks of ingestion
  scores regarding everyday role function (physical), GABA group compared to the placebo group: significant improvement
Test A, after four weeks of ingestion
  scores regarding emotional health, GABA group compared to the placebo group: significant improvement
Test A, at least after four weeks of ingestion
  scores regarding energy, GABA group compared to the placebo group: significant improvement
Test B 100 mg, 4 W
  Body pain: difference between active food and placebo food groups: −0.3
  Everyday role function (mental): difference between active food and placebo food groups: 1.5
  Everyday role function (physical): difference between active food and placebo food groups: 2.3
  General health: difference between active food and placebo food groups: 1.2
  Mental health: difference between active food and placebo food groups: 3.3
  Physical function: difference between active food and placebo food groups: 1.8
  Social life function: difference between active food and placebo food groups: 0.9
  Vitality: difference between active food and placebo food groups: 3.0
Test B 100 mg, 4 w
  Everyday role function (mental): 53.0 ± 5.5
  Everyday role function (physical): 53.8 ± 4.2
  General health: 58.3 ± 7.4
  Mental health: 55.8 ± 5.8
  Physical function: 55.2 ± 3.7
  Vitality: 53.7 ± 7.6
Test B 100 mg, 8 W
  Body pain: difference between active food and placebo food groups: 0.9
  Everyday role function (mental): difference between active food and placebo food groups: 2.1
  Everyday role function (physical): difference between active food and placebo food groups: 3.4
  General health: difference between active food and placebo food groups: 1.2
  Mental health: difference between active food and placebo food groups: 3.3
  Physical function: difference between active food and placebo food groups: 2.2
  Social life function: difference between active food and placebo food groups: 3.2
  Vitality: difference between active food and placebo food groups: 4.0
Test B 100 mg, 8 w
  Everyday role function (mental): 53.7 ± 3.9
  Everyday role function (physical): 53.9 ± 3.5
  General health: 57.2 ± 7.5
  Mental health: 56.1 ± 5.8
  Physical function: 56.6 ± 2.4
  Vitality: 54.8 ± 7.2
Test B 100 mg, 12 W
  Body pain: difference between active food and placebo food groups: 1.8
  Everyday role function (mental): difference between active food and placebo food groups: 1.7
  Everyday role function (physical): difference between active food and placebo food groups: 1.0
  General health: difference between active food and placebo food groups: 1.0
  Mental health: difference between active food and placebo food groups: 2.9
  Physical function: difference between active food and placebo food groups: 1.3
  Social life function: difference between active food and placebo food groups: 0.6
  Vitality: difference between active food and placebo food groups: 2.8
Test B 100 mg, 12 w
  Everyday role function (mental): 53.9 ± 4.3
  Everyday role function (physical): 53.1 ± 4.2
  General health: 59.2 ± 6.2
  Mental health: 56.4 ± 5.6
  Physical function: 55.9 ± 3.1
  Vitality: 54.5 ± 7.4
[2]
  Body pain: difference between active food and placebo food groups: 1.3
  Everyday role function (mental): difference between active food and placebo food groups: 1.0
  Everyday role function (physical): difference between active food and placebo food groups: 0.7
  General health: difference between active food and placebo food groups: 0.1
  Mental health: difference between active food and placebo food groups: 2.7
  Physical function: difference between active food and placebo food groups: 3.0
  Social life function: difference between active food and placebo food groups: 3.7
  Vitality: difference between active food and placebo food groups: 2.7
  Everyday role function (mental): 53.7 ± 4.7
  Everyday role function (physical): 53.5 ± 3.9
  General health: 57.5 ± 7.1
  Mental health: 56.5 ± 5.4
  Physical function: 55.6 ± 3.5
  Vitality: 54.4 ± 7.6
Test B, after eight weeks of ingestion
  scores regarding physical function, GABA group compared to the placebo group: significant improvement
